According to patent US20060183888A1 (priority 2004, published 2006):
One block for each compound: values may come before it.

What was measured:
PylS-His6 [1] = target: T1, PylS-His6 (Methanosarcina barkeri, UniProt Q6WRH6)
Procedure: The pyrophosphate exchange reaction was essentially performed following the method of Cole and Schimmel. All reactions were performed in duplicate at 37° C. The 100 to 200 μl reactions contained (unless noted) 0.3 to […] PylSHis6. […] The specific activity of the radiolabel was adjusted from 4 to 10 dpm/pmol). The concentration of protein was 0.3 to 1 μM. At specific times, 25 μl aliquots were removed and quenched in 500 μl of a stop solution containing 1.6% (w/v) activated acid-washed charcoal (Sigma Chemical Co., St. Louis, Mo.), 80 mM sodium tetrapyrophosphate, and 3.5% (v/v) perchloric acid. Samples were filtered through Whatman GF/C glass-fiber filters and then the filter was washed three times with 5 ml of 40 mM sodium tetrasodium pyrophosphate solution containing 1.7% perchloric acid (v/v) and once with 5 ml 100% ethanol. Filters were dried at 80° C. for 5 minutes then placed in 20 ml scintillation vials containing 10 ml of Ultima Gold F scintillation cocktail (PerkinElmer), shaken once, and counted in a liquid scintillation analyzer. Identical reactions without amino acid, ATP, or enzyme were also set up as negative controls in duplicate. […] One substrate was kept constant at a concentration higher than its respective apparent Km value.

NMR H/D exchange studies = type: physicochemical
Procedure: Compound 7 (˜4 mg, ˜10 μmol) was dissolved in CD3OD (0.75 mL), and D2O (2 drops) was added. The reaction mixture was kept at rt and monitored by NMR (400 MHz). […] NaOD (30% w/w in D2O, 2 drops) was then added, and the solution monitored by NMR. […] After 25 h, the C5 proton peak completely disappeared.
To rule out the possibility that the loss of the C5 proton peak was due to decomposition, the resulting mixture was evaporated at rt under reduce pressure, and the residue was redissolved in CH3OH and allowed to stir for 1 day. The mixture was then evaporated to dryness in vacuo, and redissolved in CD3OD. The NMR spectrum was quickly taken, and the C5 proton peak was again observed. As before, the C5 proton peak slowly disappeared over a 1-day period.
To evaluate the importance of the imine bond on the acidity of the C5 proton, proline was dissolved in 0.75 mL CD3OD and 0.20 mL D2O and treated with […].

His6-PylS = target: T2, His6-PylS (Methanosarcina barkeri, UniProt Q6WRH6); experiment: Gel-shift aminoacylation assay with N-terminally His-tagged PylS; type: biochemical
T2 construct: His6 (hexahistidine) (N); made in house
T2 sequence (Q6WRH6 whole entry): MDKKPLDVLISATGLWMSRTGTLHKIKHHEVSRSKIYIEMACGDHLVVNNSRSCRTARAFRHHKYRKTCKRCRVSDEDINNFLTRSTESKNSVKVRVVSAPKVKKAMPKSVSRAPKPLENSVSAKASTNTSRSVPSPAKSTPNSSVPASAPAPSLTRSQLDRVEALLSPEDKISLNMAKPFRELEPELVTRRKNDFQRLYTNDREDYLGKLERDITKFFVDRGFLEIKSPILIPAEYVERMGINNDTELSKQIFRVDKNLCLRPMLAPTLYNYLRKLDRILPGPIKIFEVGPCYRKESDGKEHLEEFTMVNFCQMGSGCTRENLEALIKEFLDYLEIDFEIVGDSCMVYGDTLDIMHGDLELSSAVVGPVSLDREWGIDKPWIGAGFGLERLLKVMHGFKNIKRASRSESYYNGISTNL
Procedure: (§1) The reaction was terminated after 5-30 min at 37° C. with an equal volume of 0.3 M sodium acetate, 8 M urea pH 5.0. Charged and uncharged tRNA were separated by acid-urea acrylamide gel electrophoresis, blotted to nitrocellulose and probed with a 5μ ^32P-end-labelled, 72-base oligonucleotide complementary to tRNACUA. Radioactivity was analysed with a STORM Phosphorimager (Amersham Biosciences).
Aminoacylation assay in acid-urea gels. […] Following incubation at 37° C. for 5 to 30 minutes, the reaction was terminated by addition of an equal volume of 2× loading dye (0.3 M sodium acetate, 8 M urea, pH 5.0) and charged and uncharged tRNA species analysed by acid-urea acrylamide gel electrophoresis following the methods outlined in Jester et al. Samples were electrophoresed in 14% polyacrylamide gels buffered with a 0.3 M sodium acetate-7 M urea solution, pH 5.0, at 50 volts and 4° C. for 24 hours. The same buffer without urea was used in the electrode chambers, and was replaced with fresh buffer every 6-8 hours. Finished gels were transblotted for 2 hours at 40 volts in 4° C. in a blotting solution of 10 mM Tris-acetate, 5 mM sodium acetate, and 0.5 mM EDTA, pH 8.0. […] Radioactivity on the blot was imaged and analyzed using a STORM Phosphorimager (Amersham Biosciences).

[2] = tested on: E. coli BL21 (DE3) expressing pylT, pylS and mtmB1; experiment: Pyrrolysine-dependent amber suppression (mtmB1 UAG readthrough, anti-MtmB immunoblot); type: cell-based; details: 1 mM in the medium, induced 4 h
Procedure: To test for amber suppression, overnight cultures were grown in Luria-Bertani broth (3 ml) with 100 μg ml^−1 ampicillin. Subsequently, 200 μl was inoculated into 1 ml fresh medium and grown to a D600 of 0.6. […] The mtmB1 gene products in equivalent amounts of lysates were then analysed by immunoblotting of a SDS 12.5% polyacrylamide gel with affinity-purified rabbit anti-MtmB antibody^6. The Rainbow Molecular Weight markers (Amersham Biosciences) were used.
To test for amber suppression, overnight cultures of a strain bearing one of the plasmids were grown in LB broth (3 mL) with 100 ug/ml final ampicillin. Subsequently, 200 μl of each culture was inoculated into 1 ml of fresh LB medium with ampicillin, and grown to an A600 of approximately 0.6. […] The cultures were then centrifuged for 1 minute 16,000×g, and the cell pellets lysed in 125 mM Tris HCl, 4.6% SDS, 20% glycerol and 10% (v/v) β-mercaptoethanol, pH 6.8, at 90 degrees for 10 minutes.
Extracts were electrophoresed in a 12.5% SDS-PAGE gel, then electroblotted overnight at 150 mA onto PVDF membrane (Bio-Rad Labs, Hercules, Calif.). The membrane was then incubated for 1 hour at room temperature with Western Breeze blocking solution (Invitrogen). […]

[3] = Stability studies to NaOH, LiOH, TFA (TLC); type: physicochemical
Procedure: Stability Studies of Compound (8) to NaOH. NaOH (6 M, 20 μL, 0.12 mmol) was added to a solution of compound 8 (0.15 M, 100 μL, 0.015 mmol). The resulting mixture was allowed to react at rt over 3 days, during which the degradation of compound 8 was monitored by a ninhydrin TLC assay (CHCl3—MeOH—NH4OH(aq)=2:2:1).
Stability Studies of Compound (8) to LiOH. Compound 8 (21.9 mg, 84 μmol) was dissolved in water (2 mL) and LiOH-H2O (84.5 mg, 2.0 mmol) was added. This mixture was allowed to react at rt. […] After 5 days, the solution was evaporated to dryness at rt, redissolved in MeOH (0.5 mL), and purified on chromatography silica gel.
Stability Studies of Compound (8) to TFA. Compound 8 (21.7 mg, 0.083 mmol) was dissolved in MeOH (2 mL) and TFA (200 μL) was added. […] The mixture was allowed to react to completion for 2 days at rt. The resulting mixture was evaporated to dryness, dissolved in MeOH (0.5 mL), and subjected to chromatography on silica gel.

PylS-His6 [4] = target: T1, PylS-His6; experiment: Aminoacylation of tRNACUA, acid-urea gel shift and northern blot; type: biochemical; set-up: made in house; host or cells: E. coli BL21 (DE3)
Procedure: as §1
Aminoacylation assay in acid-urea gels. […] Following incubation at 37° C. for 5 to 30 minutes, the reaction was terminated by addition of an equal volume of 2× loading dye (0.3 M sodium acetate, 8 M urea, pH 5.0) and charged and uncharged tRNA species analysed by acid-urea acrylamide gel electrophoresis following the methods outlined in Jester et al. Samples were electrophoresed in 14% polyacrylamide gels buffered with a 0.3 M sodium acetate-7 M urea solution, pH 5.0, at 50 volts and 4° C. for 24 hours. The same buffer without urea was used in the electrode chambers, and was replaced with fresh buffer every 6-8 hours. Finished gels were transblotted for 2 hours at 40 volts in 4° C. in a blotting solution of 10 mM Tris-acetate, 5 mM sodium acetate, and 0.5 mM EDTA, pH 8.0. The blot was then cross-linked by ultraviolet radiation (15000 μJ/cm2 per side) then prehybrized in 0.25 M sodium phosphate buffer, pH 7.2, and 5.7% SDS for at least 30 minutes. In order to detect charged and uncharged tRNACUA a 72 base oligonucleotide complementary to full length of tRNACUA was labeled with γ-^32P ATP and polynucleotide kinase. The probe was hybridized with the blot overnight at room temperature, then agitated at 22° C. for 5 minute in 10 mM sodium citrate, 150 mM NaCl, 1% SDS, pH 7.0, then agitated with two changes of 5 mM sodium citrate, 75 mM sodium chloride, 1% SDS, pH 7.0, for 5 minutes each. Radioactivity on the blot was imaged and analyzed using a STORM Phosphorimager (Amersham Biosciences).

[5] = tested on: E. coli BW25141(DE3) with pylT, pylS and UAG-mutant uidA; type: cell-based
Description: In order to avoid interference by the residue uidA gene, we employed a strain with most ofuidA deleted, E. coli BW25141(DE3). This strain was transformed with pDLGUS, a variant of the pEC03 plasmid in which the mtmB1 gene was removed and the uidA gene introduced in its place.

T1 sequence (Q6WRH6 whole entry): as above

Compound: Nc1ncnc2c1ncn2[C@@H]1O[C@H](COP(=O)(O)OP(=O)(O)OP(=O)(O)O)[C@@H](O)[C@H]1O [ATP]
Km (PylS-His6 [1]; read-out: apparent Km, 37° C., pH 7.2): 2 µM

H/D exchange of protons on ring carbons (NMR H/D exchange studies; CD3OD/D2O with base, rt, 1 day): No evidence for H/D exchange
Compound: O=C(O)[C@@H]1CCCN1 [proline, reference compound]

Compound: C[C@@H]1CC=N[C@H]1C(=O)NCCCC[C@H](N)C(=O)O [pyrrolysine, L-pyrrolysine]
tRNA synthetase activity (His6-PylS): does have pyrrolysyl-tRNA synthetase activity
apparent Vmax (PylS-His6 [1]; exchange reaction): 120 nmol min^−1 per mg PylS
UAG readthrough of mtmB1 (50-kDa MtmB) [2]: large amounts of 50-kDa MtmB
conversion under acidic conditions ([3]; acidic conditions): converted to its enamine form
aminoacylation of tRNAIYS in the M. acetivorans tRNA pool (PylS-His6 [4]): does not aminoacylate
maximal conversion of deacylated tRNACUA to charged species (PylS-His6 [4]; deacylated M. acetivorans cellular tRNA pool, with ATP and PylS-His6): 50%
maximum of tRNACUA transcribed in vitro aminoacylated (PylS-His6 [4]; in vitro transcribed tRNACUA): 43%
increase of beta-glucuronidase activity ([5]; 1 mM synthetic pyrrolysine versus absence of pyrrolysine): approximately 100 fold
beta-glucuronidase activity ([5]; induced with IPTG, 1 mM synthetic pyrrolysine): 4. umol/min·mg protein

Compound: C[C@@H]1CC=N[C@H]1C(=O)NCCCC[C@H](N)C(=O)[O-].[Li+] [Compound 8, L-Pyrrolysine lithium salt]
degradation by LiOH (TLC) ([3]; LiOH in water, rt, after 24 h): two new bands
degradation by NaOH (ninhydrin TLC) ([3]; NaOH, rt, over 3 days): One new band
degradation by TFA (TLC) ([3]; TFA in MeOH, after 1 h, complete in 2 days at rt): one new band

Compound: NCCCC[C@H](N)C(=O)O [lysine, reference compound]
tRNA synthetase activity (His6-PylS): no lysyl-tRNA synthetase activity was detectable
isotopic exchange into ATP above background (PylS-His6 [1]; 1 mM, up to 30 min): no detectable isotopic exchange
UAG readthrough of mtmB1 (50-kDa MtmB) [2]: could not be replaced
aminoacylation of tRNAIYS in the M. acetivorans tRNA pool (PylS-His6 [4]): does not aminoacylate
formation of charged tRNACUA species (PylS-His6 [4]; amino acids at 50 μM, cellular tRNA pool): not formed

change in NMR (NMR H/D exchange studies; CD3OD with D2O, rt, 3-day period): No change was observed
time to complete disappearance of the C5 proton peak (H/D exchange) (NMR H/D exchange studies; NaOD added, CD3OD/D2O): 25 h
Compound: COC(=O)[C@H](CCCCNC(=O)[C@@H]1N=CC[C@H]1C)NC(=O)C(F)(F)F [Compound 7, Nα-Trifluoroacetyl-L-pyrrolysine methyl ester]
